Experimental data reported in patent US8354447B2, “mGLU receptors antagonists for treating disorders associated with mGLU receptors including addiction and depression” (The Scripps Research Institute, priority 2002, dated 2013).
Where a name gives a salt, the structure may show the parent alone. Read-outs that look alike come from different tables or passages of the source.

What was measured:
rats = conditions: 28-day treatment, 20 mg/kg (McCarter and Kokkinidis 1988); cited from earlier work
male Wistar rats [1] = experiment: ICSS reward thresholds under baseline conditions, bupropion; assay type: in vivo, rat; conditions: bupropion 10-60 mg/kg IP, all doses tested, dose-dependent up to 40 mg/kg
Procedure: For each quarter turn, subjects received a 500 ms train of 0.1 ms cathodal square wave pulses at a frequency of 100 Hz. After successful acquisition of the response, defined as 200 consecutive reinforcements within allotted time period (usually <20 min) subjects were trained on a modification of the Kornetsky and Esposito discrete-trial currentthreshold procedure (Kornetsky and Esposito 1979), as described previously by Markou and Koob (1992).
Trials began with an electrical stimulus followed by a 7.5-s response window within which the animal could make a response to receive a second contingent stimulus identical to the initial noncontingent stimulus. A response during this 7.5-s window was considered a positive response, whereas the lack of a response was considered a negative response. Additional responses during a 2-s period immediately following a positive response had no consequence. The intertrial interval (ITI) that followed either a positive response or the end of the response window (in the case of a negative response) ranged from 7.5 to 12.5 s with an average duration of 10 s. […] Subjects then were tested on a current-threshold procedure in which stimulus intensities were varied during four alternating descending and ascending series with a step size of 5 mA. […]

male Wistar rats [2] = experiment: Somatic signs of the nicotine withdrawal syndrome; assay type: in vivo, rat; conditions: for total number of somatic signs: 24 h post pump removal, 12.5 h postbupropion
Procedure: Rats were placed individually in transparent plastic cylindrical containers (30×38 cm) in which they could move freely. Subjects were habituated to the containers for 10 min each day over 3 days before the first test session. During the test sessions the rats were observed blindly by an experienced observer for 10 min and the frequency of the following signs was recorded based on a checklist of nicotine abstinence signs (Hildebrand et al. 1999; Watkins et al. 2000; Malin 2001): body shakes, chews, cheek tremors, escape attempts, eye blinks, foot licks, gasps, genital licks, head shakes, ptosis, scratches, teeth chattering, writhes and yawns. Multiple successive counts of any sign required a distinct pause between episodes. Ptosis, if present continuously, was only counted once per minute. For statistical analyses, the total number of somatic signs was defined as the sum of individual occurrences of the above mentioned withdrawal signs. Further, the categories of “abdominal constrictions” included gasps and writhes; “facial fasciculation” included cheek tremors, chews, and teeth chattering; and “miscellaneous other signs” included shakes, escape attempts, licks, scratches, and yawns.
Separate drug-naive rats were prepared with osmotic minipumps containing nicotine (3.16 mg/kg per day for 7 days) dissolved in saline. […] Further, this nicotine dose was selected to allow direct comparison of the effects of bupropion on somatic signs (present experiment 4) and on reward threshold elevations (experiment 3 described above) observed during nicotine withdrawal. To induce the somatic signs of nicotine withdrawal the minipumps were removed 6 days and 18 h after implantation. The behavioral observations were conducted 6, 12 and 24 h after the removal of the minipumps. The rats were injected with bupropion (0, 5, 10, 20, 40 mg/kg, IP; n=6-8), 30 min prior to the 12-h time point. The selection of the time points was based on the time-course of the expression of the somatic signs after the termination of nicotine exposure (Epping-Jordan et al. 1998; Harrison et al. 2001a; Semenova and Markou 2003; Skjei and Markou 2003).

male Wistar rats [3] = experiment: ICSS thresholds during and after withdrawal from chronic nicotine, bupropion; assay type: in vivo, rat
From the text: Trials began with an electrical stimulus followed by a 7.5-s response window within which the animal could make a response to receive a second contingent stimulus identical to the initial noncontingent stimulus. A response during this 7.5-s window was considered a positive response, whereas the lack of a response was considered a negative response. Additional responses during a 2-s period immediately following a positive response had no consequence. The intertrial interval (ITI) that followed either a positive response or the end of the response window (in the case of a negative response) ranged from 7.5 to 12.5 s with an average duration of 10 s. […] Subjects then were tested on a current-threshold procedure in which stimulus intensities were varied during four alternating descending and ascending series with a step size of […]. Blocks of three trials were offered at each current step with the starting current of the first descending series set at […] above the subjects' individual baseline thresholds estimated at the end of preliminary training. […] An ascending series was terminated after two consecutive blocks of trials during which the animal made positive responses on at least two out of the three trials or after 15 successive increments were presented. The mean of the four current thresholds from the alternating series was defined as the subject's ICSS threshold for that session. A series was terminated after either 15 stimulus increments (or decrements) had occurred, or after the determination of the threshold for the series (see below). Each test session typically lasted 30 min.
Naive animals were prepared with osmotic minipumps containing either an individualized nicotine solution (3.16 mg/kg per day, free base) or saline. […] After implantation of the minipumps, thresholds were assessed daily thereafter to assess the effects of chronic nicotine exposure on reward thresholds. Seven days (exactly seven 24-h periods) after pump insertion, the pumps were removed in order to precipitate the nicotine withdrawal syndrome. ICSS thresholds were measured 12, 18, 24, 36, 48 and 72 h after pump removal. Animals were injected with bupropion (0, 10, 20, 40 mg/kg IP; n=8-11) 30 min prior to the 18-h time point.

dopamine transporter = molecular target: T1, dopamine transporter (Homo sapiens, UniProt Q01959); conditions: therapeutically effective doses, humans (Meyer et al. 2002); cited from earlier work
T1 construct: host or cells: living human brain (in vivo imaging)

male Wistar rats [4] = tested on: male Wistar rats
From the text: Trials began with an electrical stimulus followed by a 7.5-s response window within which the animal could make a response to receive a second contingent stimulus identical to the initial noncontingent stimulus. A response during this 7.5-s window was considered a positive response, whereas the lack of a response was considered a negative response. Additional responses during a 2-s period immediately following a positive response had no consequence. The intertrial interval (ITI) that followed either a positive response or the end of the response window (in the case of a negative response) ranged from 7.5 to 12.5 s with an average duration of 10 s. […] Subjects then were tested on a current-threshold procedure in which stimulus intensities were varied during four alternating descending and ascending series with a step size of 5 mA. Blocks of three trials were offered at each current step with the starting current of the first descending series set at 30-40 mA above the subjects' individual baseline thresholds estimated at the end of preliminary training. […] An ascending series was terminated after two consecutive blocks of trials during which the animal made positive responses on at least two out of the three trials or after 15 successive increments were presented. The mean of the four current thresholds from the alternating series was defined as the subject's ICSS threshold for that session. A series was terminated after either 15 stimulus increments (or decrements) had occurred, or after the determination of the threshold for the series (see below). Each test session typically lasted 30 min.

T1 sequence (Q01959 whole entry): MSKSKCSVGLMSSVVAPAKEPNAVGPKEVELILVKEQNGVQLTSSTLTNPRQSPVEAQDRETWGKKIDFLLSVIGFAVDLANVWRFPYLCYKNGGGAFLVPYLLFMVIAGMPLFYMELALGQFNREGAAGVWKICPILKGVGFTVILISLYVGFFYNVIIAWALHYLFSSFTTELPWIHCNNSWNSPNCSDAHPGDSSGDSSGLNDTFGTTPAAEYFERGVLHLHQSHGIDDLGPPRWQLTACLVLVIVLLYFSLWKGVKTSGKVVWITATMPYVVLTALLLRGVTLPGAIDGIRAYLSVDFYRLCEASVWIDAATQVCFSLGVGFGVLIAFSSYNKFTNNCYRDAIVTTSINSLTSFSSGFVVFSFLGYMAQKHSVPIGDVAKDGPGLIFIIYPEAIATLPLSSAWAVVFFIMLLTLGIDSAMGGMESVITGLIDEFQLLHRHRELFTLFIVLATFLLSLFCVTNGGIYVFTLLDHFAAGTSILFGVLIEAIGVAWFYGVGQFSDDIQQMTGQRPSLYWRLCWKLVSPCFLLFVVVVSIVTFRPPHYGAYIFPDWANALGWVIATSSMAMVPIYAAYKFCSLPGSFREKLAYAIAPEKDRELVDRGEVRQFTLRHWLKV

CC(NC(C)(C)C)C(=O)c1cccc(Cl)c1 (stereo not drawn) [bupropion, Bupropion hydrochloride]
rate of responding for ICSS (rats): had no effect on the rate of responding for ICSS
brain reward thresholds (male Wistar rats [1]): lowered brain reward thresholds compared to the vehicle conditions
long-term effect on somatic signs (male Wistar rats [2]; acute bupropion, 12.5 h): has no long-term (12.5 h) effect on the expression of the somatic signs of nicotine withdrawal
total number of somatic signs (male Wistar rats [2]; bupropion 5 mg/kg): 18.6±4
total number of somatic signs (male Wistar rats [2]; bupropion 10 mg/kg): 17.1±4.6
total number of somatic signs (male Wistar rats [2]; bupropion 20 mg/kg): 14.1±2.2
total number of somatic signs (male Wistar rats [2]; bupropion 40 mg/kg): 14.6±2.6
abdominal constrictions (writhes and gasps) (male Wistar rats [2]; bupropion 10-40 mg/kg, 12-h withdrawal time point): reversed the withdrawal-induced increase in abdominal constrictions
total somatic signs (male Wistar rats [2]; bupropion 20-40 mg/kg, 30 min prior to the 12-h withdrawal timepoint): resulted in a reversal of the expression of total somatic signs
area under the curve of the threshold data, 72-h withdrawal period (male Wistar rats [3]; bupropion 40 mg/kg, nicotine-pretreated animals): completely reversed
reward thresholds (male Wistar rats [3]; bupropion 40 mg/kg, nicotine-pretreated animals, 24 h time point): still exhibited a significant (P<0.001) reduction in reward thresholds
reward thresholds (male Wistar rats [3]; bupropion 10, 20, 40 mg/kg, thirty minutes after administration (18-h time point), nicotine- or saline-pretreated): significant and dose-dependent lowering of reward thresholds at all doses
reduction in threshold (male Wistar rats [3]; bupropion, saline pretreated animals, 24 h): short-lived and completely reversed at the next time point tested
occupancy at the dopamine transporter (dopamine transporter): 22%
brain reward thresholds (male Wistar rats [4]; bupropion 5 mg/kg alone): without effect on reward thresholds when given alone
reward-enhancing effects of acute nicotine (male Wistar rats [4]; bupropion 5 mg/kg with nicotine 0.25 mg/kg): completely reversed the reward-enhancing effects of acute nicotine
brain reward thresholds (male Wistar rats [4]; bupropion 10 and 20 mg/kg in combination with nicotine 0.25 mg/kg): resulted in threshold lowerings that were not significantly different from threshold lowerings induced by nicotine administration alone
brain reward thresholds (male Wistar rats [4]; bupropion 10 and 20 mg/kg, saline co-treated): lowered brain reward thresholds in animals that were co-treated with saline
